Here are results for seven compounds from ChEMBL document CHEMBL1772964, “Structural requirements of flavonoids for the adipogenesis of 3T3-L1 cells” (Bioorg Med Chem, 2011).

Data set [1] deals with 3T3-L1. Nature of the data set: Effect on adiponectin mRNA expression in mouse 3T3L1 cells at 3 uM on day 8 by RT-PCR relative to beta-actin mRNA expression. Format: functional.
Data set [2] concerns 3T3-L1. The experiment in a line: Effect on C/EBPalpha mRNA expression in mouse 3T3L1 cells at 3 uM on day 8 by RT-PCR relative to beta-actin mRNA expression. The format is functional.
Data set [3] has as its system 3T3-L1. The experiment in a line: Induction of adipogenesis in mouse 3T3L1 cells assessed as increase in triglyceride level on day 8. The format is functional, cell-based.
In data set [4] the test system is 3T3-L1. Nature of the data set: Effect on C/EBPdelta mRNA expression in mouse 3T3L1 adipocytes at 30 uM on day 8 by RT-PCR relative to beta-actin mRNA expression. The format is functional.
Data set [5] relates to 3T3-L1. The experiment in a line: Induction of adipogenesis in mouse 3T3L1 cells assessed as increase in triglyceride level at 10 uM on day 8 relative to control. Format: functional.
The subject of data set [6] is 3T3-L1. Nature of the data set: Effect on C/EBPalpha mRNA expression in mouse 3T3L1 cells at 10 uM on day 8 by RT-PCR relative to beta-actin mRNA expression. The format is functional.
Data set [7] concerns 3T3-L1. Nature of the data set: Induction of insulin-stimulated 2-deoxy-D- 2,6-[3H]-glucose uptake in differentiated mouse 3T3L1 cells at 10 uM compound treated for 20 mins with insulin by liquid scintillation counting (reference value: 100.0 %). The format is functional.
In data set [8] the test system is 3T3-L1. The experiment in a line: Induction of insulin-stimulated 2-deoxy-D- 2,6-[3H]-glucose uptake in mouse 3T3L1 cells chronically treated at 30 uM by liquid scintillation counting (reference value: 100.0 %). Format: functional.
The test system of data set [9] is 3T3-L1. The experiment in a line: Induction of insulin-stimulated 2-deoxy-D- 2,6-[3H]-glucose uptake in differentiated mouse 3T3L1 cells at 30 uM compound treated for 20 mins with insulin by liquid scintillation counting (reference value: 100.0 %). The format is functional.
The test system of data set [10] is 3T3-L1. The experiment in a line: Induction of adiponectin protein secretion in mouse 3T3L1 cells at 1 uM on day 8 by ELISA relative to control. The format is functional.
For data set [11], the system named is 3T3-L1. Nature of the data set: Effect on GlUT4 mRNA expression in mouse 3T3L1 cells at 10 uM on day 8 by RT-PCR relative to beta-actin mRNA expression. Format: functional.
In data set [12] the test system is 3T3-L1. Nature of the data set: Effect on GlUT4 mRNA expression in mouse 3T3L1 cells at 30 uM on day 8 by RT-PCR relative to beta-actin mRNA expression. The format is functional.
In data set [13] the test system is 3T3-L1. Nature of the data set: Effect on aP2 mRNA expression in mouse 3T3L1 cells at 30 uM on day 8 by RT-PCR relative to beta-actin mRNA expression. The format is functional.
For data set [14], the system named is 3T3-L1. The experiment in a line: Induction of adiponectin protein secretion in mouse 3T3L1 cells at 3 uM on day 8 by ELISA relative to control. The format is functional. For orientation: ELISA stands for enzyme-linked immunosorbent assay.
The test system of data set [15] is 3T3-L1. Nature of the data set: Effect on C/EBPbeta mRNA expression in mouse 3T3L1 cells at 3 uM on day 8 by RT-PCR relative to beta-actin mRNA expression. Format: functional.
Data set [16] relates to 3T3-L1. Nature of the data set: Effect on C/EBPdelta mRNA expression in mouse 3T3L1 cells at 10 uM on day 8 by RT-PCR relative to beta-actin mRNA expression. Format: functional.
For data set [17], the system named is 3T3-L1. Nature of the data set: Induction of adipogenesis in mouse 3T3L1 cells assessed as increase in triglyceride level at 0.3 uM on day 8 relative to control. Format: functional.
Data set [18] has as its system 3T3-L1. The experiment in a line: Induction of adipogenesis in mouse 3T3L1 cells assessed as increase in triglyceride level at 30 uM on day 8 relative to control. Format: functional.
Data set [19] has as its system 3T3-L1. Nature of the data set: Effect on adiponectin mRNA expression in mouse 3T3L1 cells at 10 uM on day 8 by RT-PCR relative to beta-actin mRNA expression. The format is functional.
The subject of data set [20] is 3T3-L1. The experiment in a line: Induction of insulin-stimulated 2-deoxy-D- 2,6-[3H]-glucose uptake in mouse 3T3L1 cells chronically treated at 10 uM by liquid scintillation counting (reference value: 100.0 %). Format: functional.
Data set [21] concerns 3T3-L1. Nature of the data set: Effect on aP2 mRNA expression in mouse 3T3L1 cells at 10 uM on day 8 by RT-PCR relative to beta-actin mRNA expression. The format is functional.
Data set [22] concerns 3T3-L1. Nature of the data set: Effect on C/EBPalpha mRNA expression in mouse 3T3L1 cells at 30 uM on day 8 by RT-PCR relative to beta-actin mRNA expression. The format is functional.
Data set [23] has as its system 3T3-L1. Nature of the data set: Effect on C/EBPbeta mRNA expression in mouse 3T3L1 cells at 30 uM on day 8 by RT-PCR relative to beta-actin mRNA expression. Format: functional.
Data set [24] deals with 3T3-L1. The experiment in a line: Effect on aP2 mRNA expression in mouse 3T3L1 cells at 3 uM on day 8 by RT-PCR relative to beta-actin mRNA expression. Format: functional.
The subject of data set [25] is 3T3-L1. The experiment in a line: Effect on GlUT4 mRNA expression in mouse 3T3L1 cells at 3 uM on day 8 by RT-PCR relative to beta-actin mRNA expression. Format: functional.
Data set [26] concerns 3T3-L1. The experiment in a line: Induction of adiponectin protein secretion in mouse 3T3L1 cells at 10 uM on day 8 by ELISA relative to control. Format: functional.
For data set [27], the system named is 3T3-L1. Nature of the data set: Induction of adipogenesis in mouse 3T3L1 cells assessed as increase in triglyceride level at 1 uM on day 8 relative to control. Format: functional.
In data set [28] the test system is 3T3-L1. The experiment in a line: Effect on adiponectin mRNA expression in mouse 3T3L1 cells at 30 uM on day 8 by RT-PCR relative to beta-actin mRNA expression. The format is functional.
Data set [29] concerns 3T3-L1. The experiment in a line: Effect on C/EBPdelta mRNA expression in mouse 3T3L1 cells at 3 uM on day 8 by RT-PCR relative to beta-actin mRNA expression. Format: functional.
For data set [30], the system named is 3T3-L1. Nature of the data set: Effect on PPARgamma2 mRNA expression in mouse 3T3L1 cells at 30 uM on day 8 by RT-PCR relative to beta-actin mRNA expression. Format: functional.
Data set [31] concerns 3T3-L1. Nature of the data set: Effect on C/EBPbeta mRNA expression in mouse 3T3L1 cells at 10 uM on day 8 by RT-PCR relative to beta-actin mRNA expression. Format: functional.
Data set [32] deals with 3T3-L1. Nature of the data set: Effect on PPARgamma2 mRNA expression in mouse 3T3L1 cells at 3 uM on day 8 by RT-PCR relative to beta-actin mRNA expression. The format is functional.
Data set [33] deals with 3T3-L1. The experiment in a line: Induction of insulin-stimulated 2-deoxy-D- 2,6-[3H]-glucose uptake in mouse 3T3L1 cells chronically treated at 1 uM by liquid scintillation counting (reference value: 100.0 %). The format is functional.
Data set [34] deals with 3T3-L1. The experiment in a line: Induction of adiponectin protein secretion in mouse 3T3L1 cells at 30 uM on day 8 by ELISA relative to control. The format is functional.
For data set [35], the system named is 3T3-L1. The experiment in a line: Induction of adipogenesis in mouse 3T3L1 cells assessed as increase in triglyceride level at 3 uM on day 8 relative to control. Format: functional.
The test system of data set [36] is 3T3-L1. Nature of the data set: Effect on PPARgamma2 mRNA expression in mouse 3T3L1 cells at 10 uM on day 8 by RT-PCR relative to beta-actin mRNA expression. The format is functional.
The test system of data set [37] is 3T3-L1. The experiment in a line: Inhibition of insulin-stimulated 2-deoxy-D- 2,6-[3H]-glucose uptake in differentiated mouse 3T3L1 cells compound treated for 20 mins with insulin by liquid scintillation counting (reference value: 100.0 %). The format is functional, cell-based.
In data set [38] the test system is 3T3-L1. Nature of the data set: Cytotoxicity in mouse 3T3L1 cells assessed as reduction in triglyceride accumulation at 30 uM. Format: cell-based. As to conditions: 3t3-l1, 30 µM.

On to `COc1cc(OC)c2c(=O)c(OC)c(-c3ccc(OC)c(OC)c3)oc2c1`, for which the Ratio is recorded as 1.67 in data set [1]; 1.79 in [2]; 2.34 in [4]; 1.5 in [6]; 2.25 in data set [11]; 3.62 in data set [12]. For the same compound, the Ratio was found to be 2.1 in [13]; 1.73 in data set [15]; 1.93 in [16]; 1.91 in [19]; 1.59 in data set [21]; 1.38 in data set [22]. The Ratio in data set [23] came out at 3.82; in data set [24] it was 1.34; in data set [25], 2.01; in data set [28] it was 2.59; in data set [29] it was 1.54; in [30], 2.42. The Ratio in [31] is 3.01; in [32], 1.84; in data set [36], 1.99. Also, the Activity result in data set [3] is “Dose-dependent effect”; in [5], 27%; in data set [7], 65.5%; in [8], 127.3%; in data set [9], 35.9%; in data set [10], 137.8%. For the same compound, the Activity in data set [14] is reported as 156.8%; in data set [17], 9.4%; in data set [18] it was 27.4%; in [20] it was 152.9%; in data set [26], 131.4%; in data set [27] it was 17.7%. The Activity was determined as 129.9% in data set [33], 128.1% in [34] and 26.2% in data set [35].
With `COc1ccc(-c2oc3cc(OC)cc(O)c3c(=O)c2OC)cc1`, the Activity result in data set [3] is “Dose-dependent effect”; in [5], 22.5%; in data set [7], 69.8%; in data set [8], 113.6%; in data set [9], 60.1%; in data set [10], 119.7%. In addition, the Activity in [14] amounted to 125.3%; in data set [17], 9.3%; in [18] it was 23%; in [20], 118.9%; in data set [26], 123.3%; in data set [27], 21.7%. The Activity was 108.5% in data set [33], 131.9% in data set [34] and 20.8% in data set [35].
Take `O=c1c(O)c(-c2ccc(O)cc2)oc2cc(O)cc(O)c12` [KAEMPFEROL]: the Activity came to 0.3% in [5]; 30.3% in data set [7]; 12.7% in [9]; 3.7% in [18]; 6.2% in data set [27]; 5.9% in data set [35]. Besides, in data set [37], the inhibition result was “Dose-dependent effect”.
Take `O=c1cc(-c2ccc(O)c(O)c2)oc2cc(O)cc(O)c12` [LUTEOLIN]: the Activity is -14.2% in data set [5]; “Toxic” in data set [38]; -41.3% in data set [18]; 3.9% in [27]; -6.4% in [35].
Take `COc1ccc(-c2oc3cc(OC)cc(OC)c3c(=O)c2OC)cc1` [TETRAMETHYLKAEMPFEROL]: the Ratio in [1] is reported as 1.81; in [2], 1.88; in data set [4] it was 0.77; in data set [6] it was 2.08; in data set [11], 2.54; in data set [12], 2.61. The Ratio is 2.24 in data set [13]; 1.34 in data set [15]; 1.23 in [16]; 2.05 in [19]; 2.02 in data set [21]; 1.82 in [22]. Moreover, the Ratio in data set [23] turned out to be 3.14; in data set [24] it was 1.53; in data set [25], 2.38; in [28] it was 2.9; in data set [29], 0.89; in [30] it was 2.11. In addition, the Ratio in [31] turned out to be 1.89; in data set [32], 1.67; in [36], 1.81. Further, the Activity entry was “Dose-dependent effect” in data set [3]; 28.2% in data set [5]; 62.7% in data set [7]; 135.8% in data set [8]; 46% in data set [9]; 144.6% in data set [10]. For the same compound, the Activity amounted to 149.5% in data set [14]; 10.1% in data set [17]; 33.7% in [18]; 163.1% in [20]; 164.7% in data set [26]; 19.1% in data set [27]. Moreover, the results for the Activity in data set [33], in data set [34] and in [35] were 146.5%, 136.7% and 24.1%, respectively.
Regarding `COc1ccc(-c2cc(=O)c3c(OC)cc(OC)cc3o2)cc1` [TRIMETHYLAPIGENIN], the Activity in data set [5] is reported as -17.2%; in [38], “Toxic”; in data set [17], 5.6%; in data set [18] it was -83%; in data set [27], 16.7%; in data set [35], 14.1%.
With `Cc1c(C)c2c(c(C)c1O)CCC(C)(COc1ccc(CC3SC(=O)NC3=O)cc1)O2` (stereo not given) [TROGLITAZONE], the Activity in data set [5] came out at 28.1%; in data set [14], 166.4%; in data set [17], 31.9%; in data set [27], 35.8%; in data set [35] it was 34.6%.
